We go through 13 compounds from patent US7153977B2, “Ligands and methods for preparing same” (National University of Singapore, priority 2000, dated 2006).

Broadly, the IC50 is the concentration that gives 50% inhibition. What is called Ki is the dissociation constant of the complex between target and ligand, obtained from inhibition or displacement. One may read the Kd as the concentration at which binding is half-saturated.

Data set [1] deals with T1, es nucleoside transporter (human HL-60 promyelocytic leukemia plasma membranes) (Homo sapiens, UniProt Q99808).
T1 sequence (Q99808 1-456): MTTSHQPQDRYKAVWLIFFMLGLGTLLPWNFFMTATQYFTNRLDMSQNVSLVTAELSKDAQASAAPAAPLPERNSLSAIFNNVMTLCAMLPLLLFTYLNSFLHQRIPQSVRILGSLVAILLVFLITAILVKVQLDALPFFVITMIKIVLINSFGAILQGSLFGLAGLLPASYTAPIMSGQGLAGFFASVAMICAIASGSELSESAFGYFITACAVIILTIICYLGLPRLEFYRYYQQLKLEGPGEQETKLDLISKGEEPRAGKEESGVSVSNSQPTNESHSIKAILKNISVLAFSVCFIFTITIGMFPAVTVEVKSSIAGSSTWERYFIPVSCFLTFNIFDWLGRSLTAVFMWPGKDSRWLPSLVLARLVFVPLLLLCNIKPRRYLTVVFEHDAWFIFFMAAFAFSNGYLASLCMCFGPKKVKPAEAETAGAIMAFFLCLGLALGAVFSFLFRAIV
Description: 3H-NBMPR binding to HL-60 plasma membranes. Further details: Bmax of 3H-NBMPR binding in presence of CrMCC: unit not given here. The conditions noted are these: for IC50: 5 min pretreatment, 5 nM 3H-NBMPR 30 min, read-out: IC50 of inhibition of specific 3H-NBMPR binding.

Data set [2] can be described thus: Storage stability of lyophilized CrMCC. It counts as physicochemical. The conditions noted are these: −20° C. in a desiccator.
The nature of data set [3]: Hydrophobicity on C18 reversed-phase column. It counts as physicochemical. The conditions noted are these: compared with cytidine and SMCC. The method, then:
N-Succinimidyl 4-[N-maleimidomethyl]cyclohexane-1-carboxylate (SMCC) and cytidine were dissolved in anhydrous dimethysulfoxide (DMSO) separately prior reaction. The reaction started when these two reagents were mixed at room temperature and shielded from light. The molar concentration ratio of SMCC:cytidine in the mixture was 0.10 M:0.15 M with pH 7.5–8.0 in the reaction system. Within 4 hrs, CrMCC was found in the reaction mixture and can be separated from cytidine and SMCC by a C18 reversed-phase column (Resource RPC, Pharmacia) operated on a HPLC (AKTA Purifier, Pharmacia) using the absorbance wavelength of 300 nm. Cytidine was eluted by 100% water and CrMCC and SMCC were eluted by 15% acetonitrile in water with the flow rate 1.5 ml/min. […] Formation of CrMCC reached its near maximum after 48 hrs of reaction between SMCC and cytidine at 22–24° C. (FIG. 4). The area under the peak was calculated using a computer program UNICORN (version 2.0).

In a further data set the test system is HL-60 cells. Kind of data set: Growth of HL-60 cells. The conditions noted are these: 3 days of exposure; for effect on HL-60 cell growth: concentrations as high as 100 μM.
In data set [4] the test system is es nucleoside transporter (human HL-60 promyelocytic leukemia plasma membranes). Kind of data set: 3H-CrMCC binding to HL-60 plasma membranes.
Description: This experiment was conducted to investigate the rate of ^3H-CrMCC binding to the unsealed plasma membranes of HL-60 cells. […] The binding reaction in FIG. 9 was terminated by membrane filtration method and the data were corrected for filter blanks.
It is important to confirm the binding of ^3H-CrMCC to the unsealed HL-60 plasma membranes is indeed irreversible. Purified unsealed HL-60 plasma membranes were incubated with 30 μM of ^3H-CrMCC for 10 min. After which the mixtures were diluted 20 folds and the diluted mixtures were sat at room temperature for various time intervals to allow dissociation to occur. […] The dissociation reaction shown in FIG. 10 was terminated by membrane filtration method and the data were corrected for filter blanks.
Purified unsealed HL-60 plasma membranes were incubated with 30 μM of ^3H-CrMCC for 5 min. The reaction mixture was then diluted 20-fold with reaction buffer of various pH values (pH 0.85 to 7.5). The dissociation reaction was terminated by membrane filtration method. The data were corrected for filter blanks.
Data set [5] deals with 5-HT receptor (3H-5-HT high and low affinity binding sites of murine brain membranes). Description: Inhibition of 3H-5-HT binding to murine brain membranes. The conditions noted are these: 5 min pretreatment, 5 nM 3H-5-HT 30 min. The method, then: (§1) Purified murine brain membranes suspended in reaction buffer (0.13 M NaCl, 0.02 M NaHCO3, pH 7.0) were pretreated with graded concentrations of LBT3001 (▪), LBT3002 (□), LBT3004 (∘), and LBT3005 (●) for 5 min prior exposure to ^3H-5-HT (5 nM final concentration) for additional 30 min. The reaction was terminated by membrane vacuum filtration method. […] The results were plotted against control binding determined in the absence of inhibitors.

Data set [6] concerns T2, 5-HT receptor (3H-5-HT high and low affinity binding sites of murine brain membranes).
T2 construct: other: 5 min pretreatment, 5 nM 3H-5-HT 30 min
The data set is described as above. The conditions noted are these: for IC50: 5 min pretreatment, 5 nM 3H-5-HT 30 min. The method, then: as §1

The target of data set [7] is T3, es transport system in murine EL-4 cells (Mus musculus, UniProt Q9JIM1).
T3 sequence (Q9JIM1 1-460): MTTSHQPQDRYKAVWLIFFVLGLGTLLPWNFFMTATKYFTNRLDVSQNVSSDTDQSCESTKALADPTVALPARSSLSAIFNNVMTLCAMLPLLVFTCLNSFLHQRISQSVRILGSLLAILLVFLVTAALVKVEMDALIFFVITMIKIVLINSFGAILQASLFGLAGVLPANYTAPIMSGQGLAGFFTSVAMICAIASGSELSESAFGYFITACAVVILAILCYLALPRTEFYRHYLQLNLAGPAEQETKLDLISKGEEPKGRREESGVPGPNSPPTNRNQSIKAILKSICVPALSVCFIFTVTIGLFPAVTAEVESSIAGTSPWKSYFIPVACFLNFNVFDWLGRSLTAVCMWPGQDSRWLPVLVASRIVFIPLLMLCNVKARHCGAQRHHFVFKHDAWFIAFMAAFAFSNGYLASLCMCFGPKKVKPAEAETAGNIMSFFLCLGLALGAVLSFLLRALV
Kind of data set: NEM inhibition of 3H-uridine transport in EL-4 cells (only es).

Data set [8] deals with T4, ei transport system in rat Morris 7777 cells (Rattus norvegicus, UniProt O54699).
T4 sequence (O54699 1-456): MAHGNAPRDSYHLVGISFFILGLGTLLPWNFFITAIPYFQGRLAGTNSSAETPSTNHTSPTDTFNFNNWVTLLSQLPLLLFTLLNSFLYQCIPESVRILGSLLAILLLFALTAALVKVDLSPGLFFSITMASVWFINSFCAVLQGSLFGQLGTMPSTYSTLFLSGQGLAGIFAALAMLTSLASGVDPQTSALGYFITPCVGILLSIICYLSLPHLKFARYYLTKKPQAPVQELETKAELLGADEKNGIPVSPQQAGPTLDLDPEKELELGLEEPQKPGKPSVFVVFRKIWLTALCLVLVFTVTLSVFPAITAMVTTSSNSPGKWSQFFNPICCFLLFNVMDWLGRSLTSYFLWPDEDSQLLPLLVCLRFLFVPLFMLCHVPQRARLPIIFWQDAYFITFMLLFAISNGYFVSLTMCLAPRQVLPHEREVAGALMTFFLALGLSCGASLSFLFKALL
Description: NEM inhibition of 3H-uridine transport in Morris 7777 cells (only ei).

A further data set concerns the target T5, es transporter protein (Mus musculus, UniProt Q9JIM1).
T5 sequence (Q9JIM1 1-460): T3 sequence (Q9JIM1 1-460)
The conditions noted are these: Lee et al. (1995), cited from earlier work.

In data set [9] the target is T6, es nucleoside transporter (Homo sapiens, UniProt Q99808).
T6 sequence (Q99808 1-456): T1 sequence (Q99808 1-456)
The conditions noted are these: known from the art; cited from earlier work.

Where [10] appears, read: 1 mM physiological nucleoside, 30 μM 3H-CrMCC.

Like-named read-outs stand apart in the source and are kept apart here.

As for “1-[[4-[(4-amino-1-β-D-ribofuranosyl-2(1H)-pyrimidione)carbonyl]cyclohexyl]methyl]-1H-pyrrole-2,5-dione [CrMCC]”, the figures for the “Bmax of 3H-NBMPR binding in presence of CrMCC” value in [1] (HL-60 membranes pretreated with 10 μM CrMCC 5 min) and in [1] (HL-60 membranes pretreated with 50 μM CrMCC 5 min) were 0.59±0.01 and 0.30±0.01, respectively. The IC50 in data set [1] (HL-60 plasma membranes) was determined as 10 µM. In addition, the Ki in data set [1] (HL-60 plasma membranes, read-out: Ki (calculated) for 3H-NBMPR binding) is 1 µM. The “mode of inhibition of 3H-NBMPR binding” value in data set [1] (double reciprocal plot) is reported as “non-competitive inhibition”. For the same compound, the “stability of activity on storage” value in [2] is given as “stable for at least three months”. Moreover, the hydrophobicity result in [3] was “greater than that of cytidine but is less than that of SMCC”. Also, the “effect on HL-60 cell growth” value in the data set with HL-60 cells was “little or no effect”. Also, in [4] (30 μM 3H-CrMCC), the “time needed to achieve maximum binding” value is given as ≥ 5 min. Besides, in [4] (30 μM radioligand 10 min, then 20-fold dilution, room temperature, up to at least 60 min), the “dissociation from binding sites after 20-fold dilution” value is on record as “little or no dissociation”. Also, the “pH below which ligand-receptor complexes began to break down” value in [4] (buffers pH 0.85 to 7.5) was “below 3.5”. The “stability of 3H-CrMCC-receptor complexes” value in data set [4] (physiological pH, 20-fold dilution in buffer) is listed as “very stable”. Moreover, the Kd in data set [4] (read-out: Kd of high affinity component, 3 to 800 μM 3H-CrMCC, 10 min) was 23.8 ± 2.2 µM.

On to `O=C1C=CC(=O)N1CCc1c[nH]c2ccc(O)cc12` [LBT3001, 1-[2-(5-hydroxy-1H-indol-3-yl)-ethyl]-pyrrole-2,5-dione], for which the IC50 in data set [5] is ~50 µM. Further, in data set [6], the “efficacy as irreversible binding compounds” value (from here on “efficacy”) was “demonstrated efficacy as irreversible binding compounds” and the IC50 was ~1 nM.

Take `O=C(CCCN1C(=O)C=CC1=O)NCCc1c[nH]c2ccc(O)cc12` [LBT3002, 4-(2,5-dioxo-2,5-dihydro-pyrrol-1-yl)-N-[2-(5-hydroxyl-1H-indol-3-yl)-ethyl]-butyramide]: in data set [5], the IC50 is ~200 µM. In data set [6], the “efficacy” value is on record as “demonstrated efficacy as irreversible binding compounds” and the IC50 was ~0.03 nM.

On to `O=C(CCN1C(=O)C=CC1=O)NCCc1c[nH]c2ccc(O)cc12` [LBT3004, 3-(2,5-dioxo-2,5-dihydro-pyrrol-1-yl)-N-[2-(5-hydroxyl-1H-indol-3-yl)-ethyl]-propionamide], for which the IC50 in data set [5] is ~50 µM. Further, in data set [6], the “efficacy” value is “demonstrated efficacy as irreversible binding compounds” and the IC50 is ~200 nM.

On to `O=C(NCCc1c[nH]c2ccc(O)cc12)C1CCC(CN2C(=O)C=CC2=O)CC1` (stereo not drawn) [LBT3005, 4-(2,5-dioxo-2,5-dihydro-pyrrol-1-yl-methyl)-cyclohexane carboxylic acid [2-(5-hydroxy-1H-indol-3-yl)-ethyl]-amide], for which, in [5], the IC50 stood at 300 µM. Besides, in [6], the “efficacy” value was “demonstrated efficacy as irreversible binding compounds” and the IC50 was determined as 500 nM.

For `CCN1C(=O)C=CC1=O` [NEM, N-Ethylmaleimide], the “inhibition of 3H-CrMCC binding” value in data set [4] (1 mM NEM, 30 μM 3H-CrMCC) is “as effective as 0.5 mM of CrMCC”. Also, the IC50 in data set [7] was ~100 µM; in [8], ~1500 µM.

Consider `O=C(ON1C(=O)CCC1=O)C1CCC(CN2C(=O)C=CC2=O)CC1` (stereo not drawn) [SMCC, N-Succinimidyl 4-[N-maleimidomethyl]cyclohexane-1-carboxylate, reference compound], for which the IC50 is 100 µM in [1] (HL-60 plasma membranes) and < 0.5 µM with HL-60 cells (read-out: IC50 on cell growth, HL-60 cells).

For the compound `Nc1ncnc2c1ncn2[C@@H]1O[C@H](CO)[C@@H](O)[C@H]1O` [adenosine], the “inhibition of 3H-CrMCC binding” value in data set [4] (setting [10]) is “failed to inhibit”.

Turning to `Nc1ccn([C@@H]2O[C@H](CO)[C@@H](O)[C@H]2O)c(=O)n1` [cytidine], the “effect on HL-60 cell growth” value in the data set with HL-60 cells is given as “little or no effect”. Also, the “level of binding to HL-60 plasma membranes” value in data set [4] (30 μM radioligand) was “low”. In addition, the “displacement of 3H-CrMCC from its binding sites” value in [4] (1 mM in the dilution medium) was “failed to displace”. For the same compound, in data set [4] (setting [10]), the “inhibition of 3H-CrMCC binding” value was “failed to inhibit”.

As for `COc1cc(C(=O)OCCCN2CCCN(CCCOC(=O)c3cc(OC)c(OC)c(OC)c3)CC2)cc(OC)c1OC` [dilazep], the “protection of sulfhydryl group from NEM modification” value (from here on “protection of sulfhydryl group”) at es transporter protein (at 30 μM) was “incapable of protecting”. Further, the “rate of binding of reversible antagonists” value in data set [9] is “rapid and mostly completed within first minute of incubation”.

As to `OCCN(CCO)c1nc(N2CCCCC2)c2nc(N(CCO)CCO)nc(N3CCCCC3)c2n1` [dipyridamole], the “protection of sulfhydryl group” value at es transporter protein (at 30 μM) is listed as “incapable of protecting”. Moreover, in [4] (20 μM es nucleoside transport inhibitor, 30 μM 3H-CrMCC), the “inhibition of 3H-CrMCC binding” value is listed as “failed to inhibit”.

Take `OC[C@H]1O[C@@H](n2cnc3c(O)ncnc32)[C@H](O)[C@@H]1O` [inosine]: the “inhibition of 3H-CrMCC binding” value in [4] (setting [10]) is reported as “failed to inhibit”.

On to `O=c1ccn([C@@H]2O[C@H](CO)[C@@H](O)[C@H]2O)c(=O)[nH]1` [uridine], for which the “protection of sulfhydryl group” value on es transporter protein (at 10 mM) was “incapable of protecting”. Moreover, in data set [4] (setting [10]), the “inhibition of 3H-CrMCC binding” value is listed as “failed to inhibit”.
